Measured values: article PMC12332404, “Cytochrome P450BM-3 and P450 11A1 retain Compound I (FeO^3+) chemistry with electrophilic substrates poised for Compound 0 (Fe^3+O2^−) reactions” (The Journal of Biological Chemistry, 2025)

Columns and labels:
P450 11A1 = biological target: T1, P450 11A1 (Homo sapiens, UniProt P05108); experiment: UV-vis spectral binding titration (Type II behavior); LC-MS turnover
T1 construct: gene CYP11A1
T1 sequence (P05108 40-521): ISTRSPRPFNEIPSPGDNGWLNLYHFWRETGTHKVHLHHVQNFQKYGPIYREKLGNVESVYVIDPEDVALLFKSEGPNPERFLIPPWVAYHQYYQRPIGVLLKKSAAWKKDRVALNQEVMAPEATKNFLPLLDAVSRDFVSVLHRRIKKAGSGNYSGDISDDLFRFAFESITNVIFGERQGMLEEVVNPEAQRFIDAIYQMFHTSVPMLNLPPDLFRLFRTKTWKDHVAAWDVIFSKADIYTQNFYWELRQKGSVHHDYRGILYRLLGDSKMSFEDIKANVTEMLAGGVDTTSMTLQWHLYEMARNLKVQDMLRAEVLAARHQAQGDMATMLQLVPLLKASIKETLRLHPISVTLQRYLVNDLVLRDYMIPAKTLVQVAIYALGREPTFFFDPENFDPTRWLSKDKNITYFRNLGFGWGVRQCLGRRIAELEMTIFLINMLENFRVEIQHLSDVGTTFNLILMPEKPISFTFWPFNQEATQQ

P450BM-3 (102A1) [1] = biological target: T2, P450BM-3 (102A1) (Priestia megaterium, UniProt P14779); experiment: UV-vis spectral binding titration (Type I shift, […] to […] nm)
T2 construct: gene cyp102A1
T2 sequence (P14779 1-1049): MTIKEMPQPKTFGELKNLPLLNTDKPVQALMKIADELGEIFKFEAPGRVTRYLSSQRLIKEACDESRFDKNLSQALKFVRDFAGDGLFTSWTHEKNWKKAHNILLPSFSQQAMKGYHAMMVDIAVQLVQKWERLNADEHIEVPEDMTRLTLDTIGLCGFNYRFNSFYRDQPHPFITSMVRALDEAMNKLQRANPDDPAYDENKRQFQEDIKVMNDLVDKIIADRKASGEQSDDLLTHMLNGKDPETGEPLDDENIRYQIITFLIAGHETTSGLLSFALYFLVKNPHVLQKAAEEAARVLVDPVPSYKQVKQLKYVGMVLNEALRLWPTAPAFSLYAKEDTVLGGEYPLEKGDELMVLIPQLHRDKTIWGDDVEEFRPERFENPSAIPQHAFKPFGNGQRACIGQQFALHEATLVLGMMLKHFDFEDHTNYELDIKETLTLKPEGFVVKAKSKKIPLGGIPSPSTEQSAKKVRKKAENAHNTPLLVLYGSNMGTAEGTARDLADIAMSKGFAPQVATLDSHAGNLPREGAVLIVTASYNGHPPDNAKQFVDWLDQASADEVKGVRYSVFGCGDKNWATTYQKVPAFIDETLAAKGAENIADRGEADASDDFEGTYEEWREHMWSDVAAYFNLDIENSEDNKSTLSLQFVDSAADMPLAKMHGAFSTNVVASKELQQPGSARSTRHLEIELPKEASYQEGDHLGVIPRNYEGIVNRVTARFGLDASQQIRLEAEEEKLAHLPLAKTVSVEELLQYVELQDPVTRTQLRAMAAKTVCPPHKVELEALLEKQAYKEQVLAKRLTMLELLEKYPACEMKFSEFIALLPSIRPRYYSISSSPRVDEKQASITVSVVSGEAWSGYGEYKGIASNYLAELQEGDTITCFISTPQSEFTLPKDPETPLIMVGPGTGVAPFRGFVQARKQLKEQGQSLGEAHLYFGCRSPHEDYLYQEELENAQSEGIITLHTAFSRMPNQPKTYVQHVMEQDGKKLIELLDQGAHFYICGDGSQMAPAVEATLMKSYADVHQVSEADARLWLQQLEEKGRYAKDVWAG

P450BM-3 (102A1) [2] = biological target: T2, P450BM-3 (102A1); experiment: NADPH oxidation and LC-MS hydroxylation rate ([…] min^-1) with purified enzyme; type: biochemical
P450BM-3 (102A1) [3] = biological target: T2, P450BM-3 (102A1); experiment: as above; type: biochemical; remark: listed apart in the source
P450BM-3 (102A1) [4] = biological target: T2, P450BM-3 (102A1); experiment: as above; type: biochemical; remark: listed apart in the source

## CC(C)CCC(=O)[C@@H](C)[C@H]1CC[C@H]2[C@@H]3CC=C4C[C@@H](O)CC[C@]4(C)[C@H]3CC[C@]12C [22-oxocholesterol]
P450 11A1
  Kd: 43 ± 20 µM

## CC(=O)CCCCCCCCCCC(=O)O [12-oxo C13:0, 12-oxotridecanoic acid]
P450BM-3 (102A1) [1]
  Kd: ~250 µM

## CCCCCCCCCCCCCC(=O)O [C14:0, tetradecanoic acid]
P450BM-3 (102A1) [2]
  NADPH oxidation and LC-MS hydroxylation rate (73 min^-1) with purified enzyme: 73 min⁻¹

## CCCCCCCCCCCC(=O)O [C12:0, dodecanoic acid]
P450BM-3 (102A1) [3]
  NADPH oxidation and LC-MS hydroxylation rate (2.4 min^-1) with purified enzyme: 2.4 min⁻¹

## CCCCCCCCCCCCCCCC(=O)O [C16:0, palmitic acid]
P450BM-3 (102A1) [4]
  NADPH oxidation and LC-MS hydroxylation rate (100 min^-1) with purified enzyme: 100 min⁻¹
